Results: patent US20230219986A1, “NOVEL AMINOPYRIMIDINE EGFR INHIBITOR” (QILU PHARMACEUTICAL CO., LTD., priority 2020, published 2023)

What was measured:
wild-type EGFR = biological target: T1, wild-type EGFR (Homo sapiens, UniProt P00533); assay: Enzymology experiment in vitro (HTRF/FRET kinase activity), wild-type EGFR; assay type: biochemical; conditions: HTRF KinEASE-TK, read-out: EGFR (WT) IC50
T1 construct: purchased Signalchem
How it was run: (§1)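 Kinase reaction run 40 min at room temperature with peptide and ATP after a 10 min compound–enzyme preincubation. Phosphorylation read as HTRF signal after 1 h with Eu³⁺ antibody, XL665-streptavidin and EDTA (Cisbio KinEASE-TK).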

[1] = biological target: T2, L858R/T790M/C797S triple mutant EGFR (Homo sapiens, UniProt P00533, C797S/L858R/T790M); assay: Enzymology experiment in vitro (HTRF/FRET kinase activity), L858R/T790M/C797S triple mutant EGFR; assay type: biochemical; conditions: HTRF KinEASE-TK, read-out: EGFR (L858R/T790M/C797S) IC50
T2 construct: purchased Signalchem
T2 sequence (P00533 25-1210 T790M/C797S/L858R): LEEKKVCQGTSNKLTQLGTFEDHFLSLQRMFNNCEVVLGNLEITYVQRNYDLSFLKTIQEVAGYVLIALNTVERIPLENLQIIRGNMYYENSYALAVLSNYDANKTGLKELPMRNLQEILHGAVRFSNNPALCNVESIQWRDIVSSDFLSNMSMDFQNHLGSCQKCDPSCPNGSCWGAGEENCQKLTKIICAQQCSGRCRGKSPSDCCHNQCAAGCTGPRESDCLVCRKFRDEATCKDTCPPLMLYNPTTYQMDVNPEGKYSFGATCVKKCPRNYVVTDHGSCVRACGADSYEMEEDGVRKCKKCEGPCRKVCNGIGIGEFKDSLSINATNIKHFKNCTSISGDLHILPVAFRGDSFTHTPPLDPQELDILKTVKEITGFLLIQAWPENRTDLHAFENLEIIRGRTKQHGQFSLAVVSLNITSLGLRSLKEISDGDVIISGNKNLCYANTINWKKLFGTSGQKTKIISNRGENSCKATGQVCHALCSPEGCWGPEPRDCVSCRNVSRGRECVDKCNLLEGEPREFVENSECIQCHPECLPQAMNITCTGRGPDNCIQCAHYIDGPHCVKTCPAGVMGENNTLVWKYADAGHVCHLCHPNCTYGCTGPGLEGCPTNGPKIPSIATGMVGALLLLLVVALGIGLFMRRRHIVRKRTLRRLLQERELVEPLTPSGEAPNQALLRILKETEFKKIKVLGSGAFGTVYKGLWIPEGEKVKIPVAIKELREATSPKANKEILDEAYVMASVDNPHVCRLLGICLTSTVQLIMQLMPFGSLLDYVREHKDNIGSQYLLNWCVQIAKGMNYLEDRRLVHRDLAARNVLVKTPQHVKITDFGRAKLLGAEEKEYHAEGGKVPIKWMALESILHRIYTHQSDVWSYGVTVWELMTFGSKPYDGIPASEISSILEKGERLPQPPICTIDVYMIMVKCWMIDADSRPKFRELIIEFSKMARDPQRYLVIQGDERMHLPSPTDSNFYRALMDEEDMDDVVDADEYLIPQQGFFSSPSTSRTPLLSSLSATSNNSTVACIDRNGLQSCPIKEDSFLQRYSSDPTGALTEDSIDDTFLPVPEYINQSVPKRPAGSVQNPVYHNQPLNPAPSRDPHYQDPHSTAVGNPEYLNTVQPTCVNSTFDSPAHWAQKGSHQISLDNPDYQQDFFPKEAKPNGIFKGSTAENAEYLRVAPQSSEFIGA
How it was run: as §1

[2] = biological target: Ba/F3 De119/T790M/C797S EGFR triple mutant cell line (Homo sapiens, UniProt P00533, T790M/C797S, cells depend on it, form not given); assay: Cell proliferation inhibition experiment (CellTiter-Glo), Ba/F3 De119/T790M/C797S; assay type: cell-based; conditions: Ba/F3 Del19/T790M/C797S EGFR triple mutant cells, 72 hours, Cell Titer-Glo; read-out: Ba/F3 (Del19/T790M/C797S) IC50
Sequence of Ba/F3 De119/T790M/C797S EGFR triple mutant cell line (P00533 with tags, fused parts or gaps DEL746-750/T790M/C797S, form open): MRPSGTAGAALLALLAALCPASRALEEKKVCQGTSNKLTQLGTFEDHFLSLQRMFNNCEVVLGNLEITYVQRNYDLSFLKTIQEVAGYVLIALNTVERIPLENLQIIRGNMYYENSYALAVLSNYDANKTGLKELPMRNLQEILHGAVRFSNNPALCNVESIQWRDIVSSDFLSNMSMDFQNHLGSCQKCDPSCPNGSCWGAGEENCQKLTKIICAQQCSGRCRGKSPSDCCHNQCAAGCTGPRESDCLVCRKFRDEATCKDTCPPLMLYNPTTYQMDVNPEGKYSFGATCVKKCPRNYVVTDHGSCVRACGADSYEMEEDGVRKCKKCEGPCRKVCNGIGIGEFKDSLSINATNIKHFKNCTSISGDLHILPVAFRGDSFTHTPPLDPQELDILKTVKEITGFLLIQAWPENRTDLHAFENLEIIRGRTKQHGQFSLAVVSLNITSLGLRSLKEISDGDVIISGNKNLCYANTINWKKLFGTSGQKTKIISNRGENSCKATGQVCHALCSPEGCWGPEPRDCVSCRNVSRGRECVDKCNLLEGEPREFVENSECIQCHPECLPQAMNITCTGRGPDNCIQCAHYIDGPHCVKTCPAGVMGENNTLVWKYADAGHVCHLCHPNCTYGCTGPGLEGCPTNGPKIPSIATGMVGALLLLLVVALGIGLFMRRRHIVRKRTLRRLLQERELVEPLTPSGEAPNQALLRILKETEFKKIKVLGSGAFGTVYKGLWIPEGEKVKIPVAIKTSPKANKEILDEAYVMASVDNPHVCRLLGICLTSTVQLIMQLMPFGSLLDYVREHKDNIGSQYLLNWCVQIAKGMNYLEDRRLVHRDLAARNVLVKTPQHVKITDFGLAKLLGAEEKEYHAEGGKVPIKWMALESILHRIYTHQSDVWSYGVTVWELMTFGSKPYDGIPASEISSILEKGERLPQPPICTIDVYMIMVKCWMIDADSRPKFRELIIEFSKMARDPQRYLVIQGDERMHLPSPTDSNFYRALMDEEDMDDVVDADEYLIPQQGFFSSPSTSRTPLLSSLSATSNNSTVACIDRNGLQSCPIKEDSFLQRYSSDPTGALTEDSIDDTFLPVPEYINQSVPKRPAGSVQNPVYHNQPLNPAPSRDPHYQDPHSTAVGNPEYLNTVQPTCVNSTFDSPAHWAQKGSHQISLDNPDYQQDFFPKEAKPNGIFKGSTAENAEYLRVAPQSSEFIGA

[3] = tested on: EGFR wild-type cell line A431; assay: Cell proliferation inhibition experiment (CellTiter-Glo), A431; assay type: cell-based; conditions: Homo sapiens, A-431, 72 h, A431 cells, Cell Titer-Glo, read-out: A431 EGFR WT IC50
How it was run: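 Luminescent CellTiter-Glo readout, 30 min at room temperature, after 72 h compound exposure at 37° C., 5% CO2 with 0.1% DMSO final. EGFR wild-type A431 cells were seeded at 800 per well and grown 24 h before dosing. IC50 derived from the dose-response.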

[4] = biological target: Ba/F3 L858R/T790M/C797S EGFR triple mutant cell line (Homo sapiens, UniProt P00533, T790M/C797S/L858R, cells depend on it); assay: Cell proliferation inhibition experiment (CellTiter-Glo), Ba/F3 L858R/T790M/C797S; assay type: cell-based; conditions: 72 hours, Cell Titer-Glo, read-out: Ba/F3 (L858R/T790M/C797S) IC50
Sequence of Ba/F3 L858R/T790M/C797S EGFR triple mutant cell line (P00533 whole entry T790M/C797S/L858R): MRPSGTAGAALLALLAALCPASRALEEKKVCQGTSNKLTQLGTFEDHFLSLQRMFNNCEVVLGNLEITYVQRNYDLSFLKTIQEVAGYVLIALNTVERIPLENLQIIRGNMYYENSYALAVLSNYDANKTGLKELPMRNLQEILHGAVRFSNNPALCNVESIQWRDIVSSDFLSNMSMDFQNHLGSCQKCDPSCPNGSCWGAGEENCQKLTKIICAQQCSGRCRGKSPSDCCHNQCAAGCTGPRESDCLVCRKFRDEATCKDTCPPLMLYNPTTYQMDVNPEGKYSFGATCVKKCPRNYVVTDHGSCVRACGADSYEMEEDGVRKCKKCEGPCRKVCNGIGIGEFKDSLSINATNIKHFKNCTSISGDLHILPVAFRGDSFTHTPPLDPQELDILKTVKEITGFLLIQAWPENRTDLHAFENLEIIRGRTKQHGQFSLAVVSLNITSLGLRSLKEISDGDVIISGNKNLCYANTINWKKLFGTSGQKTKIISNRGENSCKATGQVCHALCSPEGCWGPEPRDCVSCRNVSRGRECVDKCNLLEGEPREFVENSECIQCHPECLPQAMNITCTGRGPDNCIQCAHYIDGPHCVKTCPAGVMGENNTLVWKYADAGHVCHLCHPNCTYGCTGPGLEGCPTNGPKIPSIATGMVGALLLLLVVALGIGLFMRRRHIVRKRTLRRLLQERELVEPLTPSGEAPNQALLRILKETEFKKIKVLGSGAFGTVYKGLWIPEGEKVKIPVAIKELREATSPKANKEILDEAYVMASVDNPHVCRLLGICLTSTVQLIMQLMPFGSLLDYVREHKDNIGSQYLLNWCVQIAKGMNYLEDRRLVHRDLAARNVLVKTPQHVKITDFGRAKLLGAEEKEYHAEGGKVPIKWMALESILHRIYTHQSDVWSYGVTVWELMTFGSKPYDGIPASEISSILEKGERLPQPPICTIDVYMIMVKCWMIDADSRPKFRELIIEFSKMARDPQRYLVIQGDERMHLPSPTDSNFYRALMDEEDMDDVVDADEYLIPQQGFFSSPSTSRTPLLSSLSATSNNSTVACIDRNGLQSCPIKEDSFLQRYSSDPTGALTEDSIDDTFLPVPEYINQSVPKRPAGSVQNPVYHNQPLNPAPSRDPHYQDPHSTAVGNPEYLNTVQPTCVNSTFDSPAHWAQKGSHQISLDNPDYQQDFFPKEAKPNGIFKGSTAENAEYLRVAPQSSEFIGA

T1 sequence (P00533 25-1210): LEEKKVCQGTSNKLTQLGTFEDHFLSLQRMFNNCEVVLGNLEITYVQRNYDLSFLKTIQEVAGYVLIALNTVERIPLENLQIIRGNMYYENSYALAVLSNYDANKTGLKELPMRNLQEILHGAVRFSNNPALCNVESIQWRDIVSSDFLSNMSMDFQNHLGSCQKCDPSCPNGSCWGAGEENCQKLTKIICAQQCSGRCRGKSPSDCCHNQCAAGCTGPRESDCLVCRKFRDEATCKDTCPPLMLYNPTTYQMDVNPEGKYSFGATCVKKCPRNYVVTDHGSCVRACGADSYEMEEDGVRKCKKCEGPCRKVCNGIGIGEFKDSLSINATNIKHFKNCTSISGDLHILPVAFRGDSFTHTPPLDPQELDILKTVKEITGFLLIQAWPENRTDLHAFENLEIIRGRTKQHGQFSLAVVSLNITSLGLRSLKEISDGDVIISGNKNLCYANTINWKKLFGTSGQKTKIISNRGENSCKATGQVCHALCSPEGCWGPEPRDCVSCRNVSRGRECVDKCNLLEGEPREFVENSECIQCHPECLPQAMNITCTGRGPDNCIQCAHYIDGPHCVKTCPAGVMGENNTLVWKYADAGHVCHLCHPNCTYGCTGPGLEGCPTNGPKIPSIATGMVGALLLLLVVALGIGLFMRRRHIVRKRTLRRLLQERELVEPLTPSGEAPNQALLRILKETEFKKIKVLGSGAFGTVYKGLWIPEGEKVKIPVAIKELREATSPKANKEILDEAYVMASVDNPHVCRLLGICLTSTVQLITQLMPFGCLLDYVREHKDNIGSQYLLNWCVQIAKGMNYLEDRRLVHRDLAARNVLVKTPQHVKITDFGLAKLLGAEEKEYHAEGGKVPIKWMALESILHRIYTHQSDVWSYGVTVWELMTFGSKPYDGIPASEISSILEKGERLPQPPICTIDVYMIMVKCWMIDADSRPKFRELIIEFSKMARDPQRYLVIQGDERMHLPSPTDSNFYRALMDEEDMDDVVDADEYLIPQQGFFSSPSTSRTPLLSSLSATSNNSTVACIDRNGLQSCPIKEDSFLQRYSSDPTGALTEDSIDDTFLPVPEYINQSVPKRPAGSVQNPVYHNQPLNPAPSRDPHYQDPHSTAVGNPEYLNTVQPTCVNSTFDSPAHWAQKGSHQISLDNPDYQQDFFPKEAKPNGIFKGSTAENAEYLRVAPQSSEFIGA

Row | SMILES | IC50 (wild-type EGFR) | IC50 [1] | GI50 [2] | IC50 [3] | GI50 [4]
1 | COc1cc(N2CCN(C(=O)C3CC3)CC2)c(-c2cnn(C)c2)cc1Nc1ncc(Br)c(Nc2ccc3nccnc3c2P(C)(C)=O)n1 [compound 116] | 3.13 nM | 1.31 nM | 2.25 nM | 169 nM | 8.15 nM
2 | COc1cc(N2CCC(N3CCN(C)CC3)CC2)c(-c2cnn(C)c2)cc1Nc1ncc(F)c(Nc2ccc3nccnc3c2P(C)(C)=O)n1 [compound 119] | 4.07 nM | 1.3 nM | 36.6 nM | 639 nM | 239 nM
3 | COc1cc(N2CCOC(C)(C)C2)c(-c2cnn(C)c2)cc1Nc1ncc(Br)c(Nc2ccc3nccnc3c2P(C)(C)=O)n1 [compound 120] | 9.84 nM | 1.17 nM | 2.62 nM | 197 nM | 8.67 nM
4 | CN(C)CCN1CCOc2c(Nc3ncc(Br)c(Nc4ccc5nccnc5c4P(C)(C)=O)n3)cc(-c3cnn(C)c3)cc21 [compound 122] | 3.42 nM | 0.62 nM | 2.07 nM | 37.2 nM | 9.96 nM
5 | Cn1cc(-c2cc(Nc3ncc(Br)c(Nc4ccccc4P(C)(C)=O)n3)c(OCC(F)(F)F)nc2N2CCOCC2)cn1 [compound 123] | 121 nM | 1.12 nM | 24.3 nM | 8840 nM | 82 nM
6 | COc1cc(N2CCC(F)CC2)c(-c2cnn(C)c2)cc1Nc1ncc(Br)c(Nc2ccc3nccnc3c2P(C)(C)=O)n1 [compound 124] | 8.35 nM | 1.2 nM | 3.93 nM | 516 nM | 7.93 nM
7 | COc1cc(N2CCOCC2)c(-c2cnn(C)c2)cc1Nc1ncc(Br)c(Nc2ccccc2NS(=O)(=O)C2CC2)n1 [compound 125] | 23.8 nM | 0.53 nM | 5.87 nM | 490 nM | 14.4 nM
8 | COC[C@@H]1CN(c2cc(OC)c(Nc3ncc(Br)c(Nc4ccc5nccnc5c4P(C)(C)=O)n3)cc2-c2cnn(C)c2)CCO1 [compound 127] | 2.83 nM | 0.24 nM | 0.59 nM | 170 nM | 4.18 nM
9 | COc1cc(N2CCC(OC)C2)c(-c2cnn(C)c2)cc1Nc1ncc(Br)c(Nc2ccc3nccnc3c2P(C)(C)=O)n1 (centres unmarked) [compound 128] | 6.83 nM | 0.53 nM | 2.86 nM | 397 nM | 11.9 nM
10 | COCCN1CCN(c2cc(OC)c(Nc3ncc(Br)c(Nc4ccccc4NS(C)(=O)=O)n3)cc2-c2cnn(C)c2)CC1 [compound 132] | 5.71 nM | 0.07 nM | 2.45 nM | 270 nM | 30 nM
11 | COc1cc(N2CCOC(C)C2)c(-c2cnn(C)c2)cc1Nc1ncc(Br)c(Nc2ccc3nccnc3c2P(C)(C)=O)n1 (centres unmarked) [compound 134] | 3.57 nM | 0.21 nM | 1.02 nM | 316 nM | 7.82 nM
12 | COc1cc(N2CCN(CCF)CC2)c(-c2cnn(C)c2)cc1Nc1ncc(Br)c(Nc2cc3c(cc2P(C)(C)=O)CC3)n1 [compound 138] | 30.7 nM | 0.53 nM | 9.31 nM | 630 nM | 11.9 nM
13 | COc1cc(N2CCOCC2)c(-c2ccn(C)n2)cc1Nc1ncc(Br)c(Nc2ccc3nccnc3c2P(C)(C)=O)n1 [compound 140] | 94.6 nM | 5.44 nM | 29.8 nM | 3670 nM | 62 nM
14 | [2H]C([2H])([2H])N(c1cc(OC)c(Nc2ncc(Br)c(Nc3ccc4nccnc4c3P(C)(C)=O)n2)cc1-c1cnn(C)c1)C([2H])([2H])[2H] [compound 145] | 3.48 nM | 0.31 nM | 1.7 nM | 203 nM | 2.41 nM
15 | COc1cc(N2CCC3(CN(C)CCO3)C2)c(-c2cnn(C)c2)cc1Nc1ncc(Br)c(Nc2ccc3nccnc3c2P(C)(C)=O)n1 (centres unmarked) [compound 146] | 8.43 nM | 0.38 nM | 1.44 nM | 179 nM | 5.47 nM
16 | COc1cc(N2CCOCC2)c(-c2cnn(C)c2)cc1Nc1ncc(Br)c(Nc2cc3c(cc2N(C)S(C)(=O)=O)CC3)n1 [compound 147, N-(4-((5-bromo-2-((2-methoxy-5-(1-methyl-1H-pyrazol-4-yl)-4-morpholinylphenyl)amino)pyrimidin-4-yl)amino)bicyclo[4.2.0]octa-1,3,5-trien-3-yl)-N-methylmethanesulfonamide] | 53 nM | 1.16 nM | 1.3 nM | 475 nM | 2.93 nM
17 | COc1cc(N2CCC3(CCN(CC(F)F)CC3)CC2)c(-c2cnn(C)c2)cc1Nc1ncc(Br)c(Nc2ccc3nccnc3c2P(C)(C)=O)n1 [compound 149] | 78.5 nM | 3.36 nM | 1.62 nM | 376 nM | 3.21 nM

Second part, the compound after the results:

Row | IC50 (wild-type EGFR) | IC50 [1] | GI50 [2] | IC50 [3] | GI50 [4] | SMILES
18 | 0.67 nM | 0.25 nM | 1.61 nM | 150 nM | 6.16 nM | COc1cc(N2CCC(O)CC2)c(-c2cnn(C)c2)cc1Nc1ncc(Br)c(Nc2ccc3nccnc3c2P(C)(C)=O)n1 [compound 121, (6-((5-bromo-2-((4-(4-hydroxypiperidin-1-yl)-2-methoxy-5-(1-methyl-1H-pyrazol-4-yl)phenyl)amino]pyrimidin-4-yl)amino)quinoxalin-5-yl)dimethylphosphine oxide]
19 | 1.55 nM | 0.15 nM | 0.93 nM | 286 nM | 3.81 nM | COc1cc(N2CCOCC2)c(-c2cnn(C)c2)cc1Nc1ncc(Br)c(Nc2ccc3nccnc3c2NS(C)(=O)=O)n1 [compound 126]
20 | 1.44 nM | 0.05 nM | 1 nM | 73.5 nM | 9 nM | COc1cc(N2CCN3CCCC3C2)c(-c2cnn(C)c2)cc1Nc1ncc(Br)c(Nc2ccc3nccnc3c2P(C)(C)=O)n1 (centres unmarked) [compound 130]
21 | 2.57 nM | 0.12 nM | 0.6 nM | 67.8 nM | 7.17 nM | COc1cc(N2CCN3CCCCC3C2)c(-c2cnn(C)c2)cc1Nc1ncc(Br)c(Nc2ccc3nccnc3c2P(C)(C)=O)n1 (centres unmarked) [compound 131]
22 | 0.78 nM | 0.15 nM | 0.64 nM | 82.8 nM | 2.85 nM | COc1cc(N2CCC3(CCN(CCF)CC3)CC2)c(-c2cnn(C)c2)cc1Nc1ncc(Br)c(Nc2ccc3nccnc3c2P(C)(C)=O)n1 [compound 133, (6-((5-bromo-2-((4-(9-(2-fluoroethyl)-3,9-diazaspiro[5.5]undecan-3-yl)-2-methoxy-5-(1-methyl-1H-pyrazol-4-yl)phenyl)amino)pyrimidin-4-yl)amino)quinoxalin-5-yl)dimethylphosphine oxide]
23 | 0.57 nM | 0.24 nM | 1.59 nM | 61 nM | 2.33 nM | COCCN1CCC2(CC1)CCN(c1cc(OC)c(Nc3ncc(Br)c(Nc4ccc5nccnc5c4P(C)(C)=O)n3)cc1-c1cnn(C)c1)CC2 [compound 139]
24 | 1.14 nM | 0.18 nM | 2.26 nM | 194 nM | 5.16 nM | [2H]C1([2H])OC([2H])([2H])C([2H])([2H])N(c2cc(OC)c(Nc3ncc(C)c(Nc4ccc5nccnc5c4P(C)(C)=O)n3)cc2-c2cnn(C)c2)C1([2H])[2H] [compound 141]
25 | 1.16 nM | 0.25 nM | 0.34 nM | 196 nM | 2.89 nM | COc1cc(N2CCC(C)(O)CC2)c(-c2cnn(C)c2)cc1Nc1ncc(Br)c(Nc2ccc3nccnc3c2P(C)(C)=O)n1 [compound 142]
26 | 1.75 nM | 0.41 nM | 3.23 nM | 420 nM | 10.2 nM | [2H]C([2H])([2H])N(c1cc(OC)c(Nc2ncc(C)c(Nc3ccc4nccnc4c3P(C)(C)=O)n2)cc1-c1cnn(C)c1)C([2H])([2H])[2H] [compound 143]
27 | 2.77 nM | 0.66 nM | 0.35 nM | 84 nM | 1.91 nM | COc1cc(N2CCC3(CC2)CN(C)CCO3)c(-c2cnn(C)c2)cc1Nc1ncc(Br)c(Nc2ccc3nccnc3c2P(C)(C)=O)n1 [compound 144, (6-((5-bromo-2-((2-methoxy-5-(1-methyl-1H-pyrazol-4-yl)-4-(4-methyl-1-oxa-4,9-diazaspiro[5.5]undecan-9-yl)phenyl)amino)pyrimidin-4-yl)amino)quinoxalin-5-yl)dimethylphosphine oxide]
28 | 2.45 nM | 0.29 nM | 1.57 nM | 139 nM | 3.34 nM | COc1cc(N2CCN(C3COC3)CC2)c(-c2cnn(C)c2)cc1Nc1ncc(Br)c(Nc2ccc3nccnc3c2P(C)(C)=O)n1 [compound 150, (6-((5-bromo-2-((2-methoxy-5-(1-methyl-1H-pyrazol-4-yl)-4-(4-(oxetan-3-yl)piperazin-1-yl)phenyl)amino)pyrimidin-4-yl)amino)quinoxalin-5-yl)dimethylphosphine oxide]
